Measurements from paper PMC10682101, “In vitro pharmacological characterization of standard and new lysophosphatidic acid receptor antagonists using dynamic mass redistribution assay” (Frontiers in Pharmacology, 2023).
“Also recorded” adds a separate entry of the source. Where two headings read alike, the source gives them in different places.

Key:
CHO wild-type cells [1] = test: Calcium mobilization assay in CHO wild-type cells (control); format: cell-based; conditions: micromolar concentration
Description: Cells were seeded at a density of 50,000 cells/well in 100 μL into black, clear-bottom 96-well plates. The following day, cells were incubated with medium supplemented with 2.5 mM probenecid, 3 μM of the calcium-sensitive fluorescent dye Fluo-4 AM, and 0.01% pluronic acid for 30 min at 37°C. After the incubation period, the loading solution was aspirated, and 100 μL of HBSS supplemented with 20 mM HEPES, 2.5 mM probenecid, and 500 μM Brilliant Black was added. Serial dilutions of compounds were carried out in HBSS/HEPES (20 mM) buffer containing 0.01% BSA. Cell culture and drug plates were placed into a fluorimetric imaging plate reader (FlexStation II, Molecular Devices, Sunnyvale, CA), and fluorescence changes were measured. Online additions were carried out with a volume of 50 μL/well. […] To facilitate drug diffusion into the wells, the experiments were performed at 37°C, and three cycles of mixing (25 μL from each well moved up and down three times) were performed immediately after injection of antagonists into the wells. Agonist effects were expressed in the form of maximum percentage change over baseline fluorescence. Baseline fluorescence was measured in wells treated with vehicle.

human LPA1 receptor [2] = biological target: T1, human LPA1 receptor (Homo sapiens, UniProt Q92633); test: Calcium mobilization assay in CHOLPA1 cells; conditions: for Effect per se: 1 µM, data not shown; for Shift of the concentration–response curve to LPA: antagonism protocol (compound 35, compound 20 at 1 µM)
T1 sequence (Q92633 whole entry): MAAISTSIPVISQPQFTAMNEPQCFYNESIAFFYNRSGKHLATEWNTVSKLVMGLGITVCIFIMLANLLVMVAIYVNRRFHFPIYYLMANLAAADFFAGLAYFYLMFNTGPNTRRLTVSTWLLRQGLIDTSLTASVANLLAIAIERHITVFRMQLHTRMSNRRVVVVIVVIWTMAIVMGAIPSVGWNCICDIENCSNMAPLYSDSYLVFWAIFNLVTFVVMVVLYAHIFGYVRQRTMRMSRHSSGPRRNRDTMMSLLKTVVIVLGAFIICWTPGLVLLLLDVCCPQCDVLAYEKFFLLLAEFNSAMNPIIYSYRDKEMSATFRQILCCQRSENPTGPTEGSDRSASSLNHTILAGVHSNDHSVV

LPA1 receptor = conditions: 2017, cited from earlier work
CHO wild-type cells [3] = test: DMR assay in CHO wild-type cells (control); format: cell-based; conditions: for DMR response: CHO cells
Description: Confluent cells were sub-cultured using trypsin/EDTA and used for experiments. Cells were seeded at a density of 20,000 cells/well in 30 µL into fibronectin-coated EnspireTM-LC 384-well plates and cultured for 20 h to form a confluent monolayer. On the day of the experiment, the cells were manually washed twice and maintained with assay buffer (HBSS with 20 mM HEPES, 0.01% BSA) for 90 min before DMR experiments. DMR was monitored in real time with a temporal resolution of 44 s throughout the assay. Experiments were performed at 37°C using an EnSight Multimode Plate Reader (PerkinElmer). The agonism protocol was as follows: before addition of the ligand, the DMR signal was measured for 5 min, and the average of the signals recorded during this period was set as the baseline (pm = 0). Compounds are added manually in a volume of 10 µL, and the triggered DMR signals were recorded for 60 min. The antagonism protocol was as follows: antagonists were added manually 25 min before reading the 5 min baseline. […] Responses were described in the form of picometer shift over time (seconds) following the subtraction of values from vehicle-treated wells. Maximum picometer (pm) modification (peak) and area under the curve (AUC) were used to determine the agonist response.

human LPA1 receptor [4] = biological target: T1, human LPA1 receptor; test: Dynamic mass redistribution (DMR) assay in CHOLPA1 cells; conditions: for DMR response: CHOLPA1 cells; for Shift of the concentration–response curve to LPA: antagonism protocol; for Agonism Emax: negative DMR signal; for EC50: Agonism pEC50, CHOLPA1, DMR
Description: All data were analyzed using GraphPad Prism 9.4 (La Jolla, CA, United States). Concentration–response curves were fitted using the four-parameter log-logistic equation. Data are expressed in the form mean ± s.e.m. across n experiments performed in duplicate. Agonist potency is expressed in the form pEC50, which is the negative logarithm to base 10 of the agonist molar concentration that produces 50% of the maximal possible effect of that agonist. […] In practice, equiactive concentrations of the agonist in the absence ([A]) and presence ([A’]) of a non-competitive antagonist ([B]) were compared in a double reciprocal plot describing a straight line, and pKB was derived from the equation: pKB = log[(slope—1)/[B]]. […] Maximal effect data were analyzed using the Student’s t-test or a one-way ANOVA followed by Dunnett’s post-hoc test.

[5] = set-up: method as in Allanore et al., 2018; conditions: phase II, diffuse cutaneous systemic sclerosis; ref Allanore et al., 2018; cited from earlier work
human LPA2 receptor [6] = biological target: T2, human LPA2 receptor (Homo sapiens, UniProt Q9HBW0); test: Dynamic mass redistribution (DMR) assay in CHOLPA2 cells; conditions: for DMR response: CHOLPA2 cells; for Shift of the concentration–response curve to LPA / DMR effect per se / Agonism Emax / Agonism pEC50: CHOLPA2, DMR; for Shift of the concentration–response curve to LPA: antagonism protocol, 1 µM; for DMR effect per se: concentration–response up to highest concentration tested; for Agonism Emax / Agonism pEC50: negative DMR signal, peak, up to 10 µM (compound 35 up to 1 µM), °inactive at 10 μM
T2 sequence (Q9HBW0 whole entry): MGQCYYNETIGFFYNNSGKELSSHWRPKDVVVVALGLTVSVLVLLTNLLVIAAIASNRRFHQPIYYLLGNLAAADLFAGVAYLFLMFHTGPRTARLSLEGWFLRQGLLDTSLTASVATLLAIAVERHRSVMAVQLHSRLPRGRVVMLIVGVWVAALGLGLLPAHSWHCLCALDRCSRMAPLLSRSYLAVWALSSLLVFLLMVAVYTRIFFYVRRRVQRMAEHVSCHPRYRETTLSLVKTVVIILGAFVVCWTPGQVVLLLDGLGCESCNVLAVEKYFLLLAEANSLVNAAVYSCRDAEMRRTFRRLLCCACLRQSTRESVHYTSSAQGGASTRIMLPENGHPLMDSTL
Description: Confluent cells were sub-cultured using trypsin/EDTA and used for experiments. Cells were seeded at a density of 20,000 cells/well in 30 µL into fibronectin-coated EnspireTM-LC 384-well plates and cultured for 20 h to form a confluent monolayer. On the day of the experiment, the cells were manually washed twice and maintained with assay buffer (HBSS with 20 mM HEPES, 0.01% BSA) for 90 min before DMR experiments. DMR was monitored in real time with a temporal resolution of 44 s throughout the assay. Experiments were performed at 37°C using an EnSight Multimode Plate Reader (PerkinElmer). The agonism protocol was as follows: before addition of the ligand, the DMR signal was measured for 5 min, and the average of the signals recorded during this period was set as the baseline (pm = 0). Compounds are added manually in a volume of 10 µL, and the triggered DMR signals were recorded for 60 min. […] Responses were described in the form of picometer shift over time (seconds) following the subtraction of values from vehicle-treated wells. Maximum picometer (pm) modification (peak) and area under the curve (AUC) were used to determine the agonist response.
All data were analyzed using GraphPad Prism 9.4 (La Jolla, CA, United States). Concentration–response curves were fitted using the four-parameter log-logistic equation. Data are expressed in the form mean ± s.e.m. across n experiments performed in duplicate. […] In practice, equiactive concentrations of the agonist in the absence ([A]) and presence ([A’]) of a non-competitive antagonist ([B]) were compared in a double reciprocal plot describing a straight line, and pKB was derived from the equation: pKB = log[(slope—1)/[B]]. […] Maximal effect data were analyzed using the Student’s t-test or a one-way ANOVA followed by Dunnett’s post-hoc test.

LPA2 receptor = biological target: LPA2 receptor; set-up: method as in Beck et al., 2008; conditions: ref Beck et al., 2008, cited from earlier work
human LPA2 receptor [7] = biological target: T2, human LPA2 receptor; test: Calcium mobilization assay in CHOLPA2 cells; conditions: CHOLPA2, calcium mobilization; for Effect per se / Shift of the concentration–response curve to LPA: 1 µM; for Effect per se: data not shown; for Agonism Emax / Agonism pEC50: #inactive at 1 μM; for Shift of the concentration–response curve to LPA: antagonism protocol
LPA1 = test system: LPA1; set-up: method as in Cheng et al., 2021; conditions: LPA1 antagonist, calcium mobilization; ref Cheng et al., 2021; cited from earlier work
[8] = set-up: method as in Palmer et al., 2018; conditions: patients with idiopathic pulmonary fibrosis, ref Palmer et al., 2018, cited from earlier work
[9] = CHOLPA1, calcium mobilization, #inactive at 1 μM
[10] = CHOLPA1, DMR, peak, up to 10 µM (compound 35 up to 1 µM), °inactive at 10 μM
[11] = negative DMR signal (inverse agonism), peak, up to 10 µM (compound 35 up to 1 µM), °inactive at 10 μM
[12] = CHOLPA1, calcium mobilization, *inactive at 0.1 µM

Compound | Effect per se (human LPA1 receptor [2]; CHOLPA1, calcium mobilization) | Shift of the concentration–response curve to LPA (human LPA1 receptor [2]; CHOLPA1, calcium mobilization) | Shift of the concentration–response curve to LPA (human LPA2 receptor [6]) | DMR effect per se (human LPA2 receptor [6]) | Agonism Emax (human LPA2 receptor [6]) | Agonism pEC50 (human LPA2 receptor [6]) | Shift of the concentration–response curve to LPA (human LPA1 receptor [4]; CHOLPA1, DMR, 1 µM) | Agonism Emax (human LPA1 receptor [4]; [10]) | Effect per se (human LPA2 receptor [7]) | Agonism Emax (human LPA2 receptor [7]) | Agonism pEC50 (human LPA2 receptor [7]) | Shift of the concentration–response curve to LPA (human LPA2 receptor [7]) | DMR response (CHO wild-type cells [3]; compound 10 μM, mean ± s.e.m.) | DMR response (human LPA2 receptor [6]; compound 10 μM, mean ± s.e.m.) | EC50 (human LPA1 receptor [4]; [11]) | DMR response (human LPA1 receptor [4]; compound 10 μM, mean ± s.e.m.) | also measured
CCCCCCCC/C=C\CCCCCCCC(=O)OC[C@@H](O)COP(=O)([O-])O.[Na+] [LPA, Oleoyl-L-α-lysophosphatidic acid sodium salt] | – | – | – | – | – | – | – | – | – | – | – | – | – | – | – | – | Effect in CHO wild-type cells (CHO wild-type cells [1]): elicited some stimulant effects; pEC50 (stimulant effect of LPA) (human LPA1 receptor [2]; CHOLPA1, calcium mobilization, LPA 0.01 nM–10 µM): 7.25 (7.19–7.31); pEC50 (LPA1 receptor; native LPA1 receptor, ref Sattikar et al.): ~7.5; pEC50 (LPA1 receptor; recombinant LPA1 receptor, ref Swaney et al., 2011, Shimizu and Nakayama): ~7.5; Effect in CHO wild-type cells (CHO wild-type cells [3]; DMR, micromolar concentration): elicited some stimulant effects; pEC50 (stimulant effect of LPA) (human LPA1 receptor [4]; CHOLPA1, DMR, peak, LPA 0.01 nM–10 µM): 7.16 (6.89–7.43)
COc1ccc(C(=O)NC2(C(=O)O)Cc3ccccc3C2)cc1OCCc1cccc(C)c1 [SAR-100842] | – | – | – | – | – | – | – | – | – | – | – | – | – | – | – | – | Improvement in the modified Rodnan skin thickness score [5]: not statistically significant; Tolerability [5]: well-tolerated
Nc1ncnc2c1ncn2[C@@H]1O[C@H](COP(=O)(O)OP(=O)(O)OP(=O)(O)O)[C@@H](O)[C@H]1O [ATP] | – | – | – | – | – | – | – | – | – | – | – | – | – | – | – | – | DMR response (CHO wild-type cells [3]; ATP 100 μM): 156 ± 11 pm; DMR response (human LPA2 receptor [6]; ATP 100 μM): 96 ± 13 pm; DMR response (human LPA1 receptor [4]; ATP 100 μM): 84 ± 6 pm
Cc1csc2c(N[C@@H](C)CN3CCN(S(=O)(=O)c4ccc(Cl)c(Cl)c4)CC3)ncnc12 [Compound 35] | did not produce any effect per se | did not shift the concentration–response curve to LPA to the right | shifted the concentration–response curve to LPA to the right | inactive per se, or slightly active only at the higher concentration tested | Crc incomplete | Crc incomplete | did not shift the concentration–response curve to LPA to the right | Crc incomplete | did not produce any effect per se | Inactive^# | Inactive^# | shifted the concentration–response curve to LPA to the right | – | – | – | – | Kb (human LPA1 receptor [2]; Antagonism pKB/pA2, CHOLPA1, calcium mobilization, LPA curve in absence and presence of 1 µM compound): > 1000 nM; Agonism Emax (human LPA1 receptor [2]; [9]): Inactive^#; Agonism pEC50 (human LPA1 receptor [2]; [9]): Inactive^#; DMR response (CHO wild-type cells [3]; compound 35 1 μM): −27 ± 13 pm; DMR response (human LPA2 receptor [6]; compound 35 1 μM): −88 ± 6 pm; Agonism pEC50 (human LPA1 receptor [4]; CHOLPA1, DMR, negative DMR signal (inverse agonism), peak, up to 10 µM (compound 35 up to 1 µM), °inactive at 10 μM): Crc incomplete; DMR effect per se (human LPA1 receptor [4]; CHOLPA1, DMR, up to highest concentration tested (10 μM; compound 35 1 µM)): only a slight negative signal at the highest concentration tested; DMR response (human LPA1 receptor [4]; compound 35 1 μM): −101 ± 10 pm; pIC50 (LPA2 receptor; inhibition of stimulant activity of LPA on Ca2+ mobilization, LPA2-transfected cells): 7.77; Selectivity for LPA2 vs. LPA1 and LPA3 receptors (LPA2 receptor): highly selective
Cc1noc(-c2ccc(O[C@H]3CC[C@@H](C(=O)O)CC3)cc2)c1NC(=O)O[C@H](C)c1ccccc1Cl [Compound CHI] | inactive | – | did not shift the concentration–response curve to LPA | inactive | – | – | active as an LPA1 antagonist only in calcium mobilization experiments | −68 ± 13 pm | inactive | – | – | did not shift the concentration–response curve to LPA | −4 ± 22 pm | −55 ± 19 pm | 309 nM | −78 ± 18 pm | Kb (human LPA1 receptor [2]; pKB, CHOLPA1, calcium mobilization, Gaddum method, 1 µM antagonist): 57.5 nM; DMR effect per se (CHO wild-type cells [3]; CHO wild-type cells, 10 µM): inactive
Cc1noc(-c2ccc(-c3ccc(C4(C(=O)O)CC4)cc3)cc2)c1NC(=O)O[C@H](C)c1ccccc1 [BMS-986020] | did not produce any effect per se | shifted the concentration–response curve to LPA to the right | – | inactive per se, or slightly active only at the higher concentration tested | Crc incomplete | Crc incomplete | shifted the concentration–response curve to LPA to the right | – | did not produce any effect per se | Inactive^# | Inactive^# | shifted the concentration–response curve to LPA to the right | −39 ± 17 pm | −79 ± 18 pm | 87.1 nM | −134 ± 28 pm | pKB (LPA1): ~8; Rate of decline in forced vital capacity ([8]; compared with placebo): slower rate of decline in forced vital capacity; Cholecystitis ([8]; study interrupted): three cases of cholecystitis; Hepatic enzymes ([8]; study interrupted): elevation in hepatic enzymes; Agonism Emax (human LPA1 receptor [2]; [12]): Inactive*; Agonism pEC50 (human LPA1 receptor [2]; [12]): Inactive*; Effect on LPA maximal effect (human LPA1 receptor [2]; CHOLPA1, calcium mobilization, tested as antagonist): produced a reduction in LPA maximal effect; Kb (human LPA1 receptor [4]): 79.4 nM; Effect on LPA maximal effect (human LPA1 receptor [4]; CHOLPA1, DMR, tested as antagonist, 1 µM): produced a reduction in LPA maximal effect; also recorded: slight but statistically significant reduction in LPA maximal effect
